In ChEMBL document CHEMBL1201862, “PubChem BioAssay data set” (2004):
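Where inhibition never reached the appropriate level, the endpoint shown equals the highest concentration tested. Otherwise, values were interpolated linearly from a five-concentration, 48-hour dose response in 96-well plates. Here, GI50 denotes the concentration required for 50% inhibition of growth.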 Activity calls are given as the source filed them. Cut-off read from the data, not from the text of the source: active = GI50 up to about 1.1 µM and inactive = higher.

Key:
Test in all cases: inhibition of tumour cell growth, NCI panel, 48 h
[1] = test system: CAKI-1
[2] = test system: COLO 205
[3] = test system: EKVX
[4] = test system: HCC 2998
[5] = test system: HCT-116
[6] = test system: HCT-15
[7] = test system: HT-29
[8] = test system: K562
[9] = test system: MOLT-4
[10] = test system: Malme-3M
[11] = test system: NCI-H460
[12] = test system: OVCAR-3
[13] = test system: OVCAR-4
[14] = test system: SF-539
[15] = test system: SK-MEL-28
[16] = test system: SK-MEL-5
[17] = test system: SK-OV-3
[18] = test system: SNB-19
[19] = test system: UACC-257
[20] = test system: SW-620

Row | Compound | GI50 [1] | GI50 [2] | GI50 [3] | GI50 [4] | GI50 [5] | GI50 [6] | GI50 [7] | GI50 [8] | GI50 [9] | GI50 [10] | GI50 [11] | GI50 [12] | GI50 [13] | GI50 [14] | GI50 [15] | GI50 [16] | GI50 [17] | GI50 [18] | GI50 [19] | GI50 [20]
1 | C=CC(OCC)(OCC)OCC | > 100 µM (inactive) | > 100 µM (inactive) | > 100 µM (inactive) | > 100 µM (inactive) | 20.6 µM (inactive) | 53.1 µM | > 100 µM (inactive) | > 100 µM (inactive) | > 100 µM (inactive) | > 100 µM (inactive) | > 100 µM (inactive) | > 100 µM (inactive) | > 100 µM (inactive) | > 100 µM (inactive) | > 100 µM (inactive) | > 100 µM (inactive) | > 100 µM (inactive) | > 100 µM (inactive) | > 100 µM (inactive) | 
2 | CCOC(=O)CNC(=O)N(CC)C12CC3CC(CC(C3)C1)C2 | 147 µM (inactive) | 110 µM (inactive) | 157 µM (inactive) | 158 µM (inactive) | 121 µM (inactive) | 115 µM | 132 µM (inactive) | 122 µM (inactive) | 119 µM (inactive) | 133 µM (inactive) | 154 µM (inactive) | 114 µM (inactive) | 188 µM (inactive) | 123 µM (inactive) | 206 µM (inactive) | 104 µM (inactive) | 123 µM (inactive) | 153 µM (inactive) | 122 µM (inactive) | 145 µM (inactive)
3 | NC(=S)N/N=C/c1ccc(OC(=O)COc2ccccc2Cl)cn1 | 44.2 µM (inactive) | 44.6 µM (inactive) | 56.4 µM (inactive) | 36.6 µM (inactive) | 26.5 µM (inactive) | 39.5 µM | 48 µM (inactive) | 23.1 µM (inactive) | 16.3 µM (inactive) | 24.4 µM (inactive) | 35.2 µM (inactive) | 23.2 µM (inactive) | 32.4 µM (inactive) | 14.3 µM (inactive) | 65 µM (inactive) | 24.8 µM (inactive) | > 67 µM (inactive) | 47.8 µM (inactive) | 50.1 µM (inactive) | 31 µM (inactive)
4 | NC(=O)Nc1cc(O)ccc1/N=N/c1ccc(S(=O)(=O)Nc2ccccn2)cc1 | > 100 µM (inactive) | > 100 µM (inactive) | > 100 µM (inactive) | > 100 µM (inactive) | > 100 µM (inactive) | > 100 µM | > 100 µM (inactive) | > 100 µM (inactive) | 5.9 µM (inactive) | > 100 µM (inactive) | > 100 µM (inactive) | > 100 µM (inactive) | > 100 µM (inactive) | > 100 µM (inactive) | > 100 µM (inactive) | > 100 µM (inactive) | > 100 µM (inactive) | > 100 µM (inactive) | > 100 µM (inactive) | > 100 µM (inactive)
5 | O=C1OC(=O)C2C1C(c1ccccc1[N+](=O)[O-])C=C(c1ccco1)N2c1ccncc1 (configuration not stated) | 16 µM (inactive) | 7.98 µM (inactive) | 15.2 µM (inactive) | 1.86 µM (inactive) | 1.83 µM (inactive) | 2.92 µM | 2.57 µM (inactive) | 1.35 µM (inactive) | 1.88 µM (inactive) | 25.1 µM (inactive) | 12.1 µM (inactive) | 11.9 µM (inactive) | 15.2 µM (inactive) | 4.65 µM (inactive) | 8.34 µM (inactive) | 4.09 µM (inactive) | 17.6 µM (inactive) | 8.39 µM (inactive) | 2.08 µM (inactive) | 6.15 µM (inactive)
6 | Nc1c(Cl)c([N+](=O)[O-])cc2c1OCCCCO2 | 56.4 µM (inactive) | > 100 µM (inactive) | 61.8 µM (inactive) | > 100 µM (inactive) | > 100 µM (inactive) | > 100 µM | > 100 µM (inactive) | > 100 µM (inactive) | > 100 µM (inactive) | > 100 µM (inactive) | > 100 µM (inactive) | > 100 µM (inactive) | > 100 µM (inactive) | > 100 µM (inactive) | > 100 µM (inactive) | 44.9 µM (inactive) | 18.3 µM (inactive) | > 10 µM (inactive) | > 100 µM (inactive) | > 100 µM (inactive)
7 | COc1cc(OC)c(SSCCCCS(=O)O)c(OC)c1 | > 10 µM (inactive) | 17.5 µM (inactive) | 13.7 µM (inactive) | 20.1 µM (inactive) | 16.3 µM (inactive) | 16.6 µM | 16.4 µM (inactive) | 17.4 µM (inactive) | 6.78 µM (inactive) | 12.2 µM (inactive) | 17.1 µM (inactive) | 15.1 µM (inactive) | 14.3 µM (inactive) | 16.1 µM (inactive) | 15 µM (inactive) | 10.4 µM (inactive) | 23.8 µM (inactive) | 17.5 µM (inactive) | 10.7 µM (inactive) | 13.9 µM (inactive)
8 | CCC/C=C/C=C\C(=O)O[C@@H]1[C@@H](C)[C@]2(O)[C@@H]3C=C(C)C(=O)[C@H]3CC(COC(C)=O)=C[C@H]2[C@@H]2C(C)(C)[C@]12OC(C)=O | 26.1 µM (inactive) | 1.74 µM (inactive) | 49.9 µM (inactive) | 14.8 µM (inactive) | 20.4 µM (inactive) | 28.6 µM | 40 µM (inactive) | 2.49 µM (inactive) | 10.2 µM (inactive) | 33.2 µM (inactive) | 1.61 µM (inactive) | 46.7 µM (inactive) | 30.2 µM (inactive) | 41.4 µM (inactive) | 39.4 µM (inactive) | 16.4 µM (inactive) | 81.7 µM (inactive) | 54.1 µM (inactive) | 42.9 µM (inactive) | 11.2 µM (inactive)
9 | CSc1sc(=S)sc1SC | 1 µM (active) | > 100 µM (inactive) | > 100 µM (inactive) | > 100 µM (inactive) | > 100 µM (inactive) | > 100 µM | > 100 µM (inactive) | > 100 µM (inactive) | > 100 µM (inactive) | > 100 µM (inactive) | > 100 µM (inactive) | > 100 µM (inactive) | > 100 µM (inactive) | > 100 µM (inactive) | > 100 µM (inactive) | > 100 µM (inactive) | > 100 µM (inactive) | > 100 µM (inactive) | > 100 µM (inactive) | > 100 µM (inactive)
10 | Cn1cnnc1Sc1c([N+](=O)[O-])nc(-c2ccc([N+](=O)[O-])cc2)n1C | 32.7 µM (inactive) | 14.9 µM (inactive) | 27.5 µM (inactive) | 17.5 µM (inactive) | 15.1 µM (inactive) |  | 18.4 µM (inactive) | 18 µM (inactive) | 14.6 µM (inactive) | 14.9 µM (inactive) | 36.1 µM (inactive) | 17 µM (inactive) | 16.1 µM (inactive) | 16.7 µM (inactive) | 16 µM (inactive) | 16.9 µM (inactive) | > 100 µM (inactive) | > 100 µM (inactive) | 16 µM (inactive) | 16.1 µM (inactive)
11 | CC1OC(OC2C(OC(=O)[C@@H]3CC(C)(C)C[C@H]4C5=CC[C@@H]6[C@@]7(C)C[C@H](O)[C@H](OC8OC(CO)C(O)C(O)C8O)[C@@](C)(CO)[C@@H]7[C@H](O)C[C@@]6(C)[C@]5(C)CC[C@@]34C)OCC(O)C2O)C(O)C(O)C1O (some centres not stated) | > 7.5 µM (inactive) | > 7.5 µM (inactive) | > 7.5 µM (inactive) | > 7.5 µM (inactive) | > 7.5 µM (inactive) | > 7.5 µM | > 7.5 µM (inactive) | > 7.5 µM (inactive) | > 7.5 µM (inactive) | > 7.5 µM (inactive) | > 7.5 µM (inactive) | > 7.5 µM (inactive) | > 7.5 µM (inactive) | > 7.5 µM (inactive) |  | > 7.5 µM (inactive) | > 7.5 µM (inactive) | > 7.5 µM (inactive) | > 7.5 µM (inactive) | > 7.5 µM (inactive)
12 | O=C(/C=C/c1ccc(Cl)c(Cl)c1)C1CCC(Cl)CC1 (configuration not stated) | 21.3 µM (inactive) | 21.8 µM (inactive) | 17.4 µM (inactive) | 17.2 µM (inactive) | 11.8 µM (inactive) | 18.2 µM | 16.3 µM (inactive) |  |  | 18.5 µM (inactive) | 23.2 µM (inactive) | 15 µM (inactive) | 17 µM (inactive) | 18.4 µM (inactive) | 17.5 µM (inactive) | 18.3 µM (inactive) | 18.1 µM (inactive) | 17.7 µM (inactive) | 18.5 µM (inactive) | 16.9 µM (inactive)
13 | Cc1cc(NS(=O)(=O)c2ccc(Nc3c4ccccc4nc4c(C(=O)N5CCN(CCO)CC5)ccc(Cl)c34)cc2)no1 | > 100 µM (inactive) | > 100 µM (inactive) |  | 71.8 µM (inactive) | > 100 µM (inactive) | > 100 µM | > 100 µM (inactive) | 48.4 µM (inactive) | 36.3 µM (inactive) | > 100 µM (inactive) | > 100 µM (inactive) | > 100 µM (inactive) | > 100 µM (inactive) | > 100 µM (inactive) | > 100 µM (inactive) | 36.3 µM (inactive) | > 100 µM (inactive) | > 100 µM (inactive) | > 100 µM (inactive) | 
14 | N=C(N)C1CN(CCCCCCCCCCN2CC(C(=N)N)C(O)=NC2=O)C(=O)N=C1O (configuration not stated) | > 10 µM (inactive) | > 10 µM (inactive) | > 10 µM (inactive) | > 10 µM (inactive) | > 10 µM (inactive) | > 10 µM | > 10 µM (inactive) | > 10 µM (inactive) | > 10 µM (inactive) | > 10 µM (inactive) | > 10 µM (inactive) | > 10 µM (inactive) | > 10 µM (inactive) | > 10 µM (inactive) |  | > 10 µM (inactive) | > 10 µM (inactive) | > 10 µM (inactive) | > 10 µM (inactive) | > 10 µM (inactive)
